Measurements from ChEMBL document CHEMBL5352469, “Solubility-driven optimization of benzothiopyranone salts leading to a preclinical candidate with improved pharmacokinetic properties and activity against Mycobacterium tuberculosis” (Eur J Med Chem, 2023).
Values after ≈ are worked out from the molar mass of the structure shown.

Experiments:
[1] = Aqueous solubility of compound by HPLC-PDA method; assay type: physicochemical; settings: buffer
[2] = Apparent permeability across apical to basolateral side in human Caco-2 cells incubated for 21 days; assay type: ADME, cell-based; settings: time 21 day
[3] = Apparent permeability across basolateral to apical side in human Caco-2 cells incubated for 21 days; assay type: ADME, cell-based; settings: time 21 day
[4] = Efflux ratio of apparent permeability across basolateral to apical side over apical to basolateral side in human Caco-2 cells; assay type: ADME, cell-based
[5] = Elimination half life in Balb/c mouse at 50 mg/kg, po measured upto 24 hrs by LC/MS/MS analysis; assay type: ADME, organism-based; settings: in vivo, read-out: beta t1/2 (converted)
[6] = Elimination half life in Balb/c mouse at 5 mg/kg, iv measured upto 24 hrs by LC/MS/MS analysis; assay type: ADME, organism-based; settings: in vivo, read-out: beta t1/2 (converted)
[7] = Tmax in Balb/c mouse at 50 mg/kg, po measured upto 24 hrs by LC/MS/MS analysis; assay type: ADME, organism-based; settings: in vivo
[8] = Cmax in Balb/c mouse at 50 mg/kg, po measured upto 24 hrs by LC/MS/MS analysis; assay type: ADME, organism-based; set-up: time < 24 hrs, dose 50 mg/kg, route po; settings: in vivo
[9] = Cmax in Balb/c mouse at 5 mg/kg, iv measured upto 24 hrs by LC/MS/MS analysis; assay type: ADME, organism-based; set-up: dose 5 mg/kg, time < 24 hrs, route iv; settings: in vivo
[10] = AUC (0 to t) in Balb/c mouse at 50 mg/kg, po measured upto 24 hrs by LC/MS/MS analysis; assay type: ADME, organism-based; set-up: dose 50 mg/kg, time < 24 hrs, route po; settings: in vivo; for AUC(0-t) at 24 h: Balb/c
[11] = AUC (0 to t) in Balb/c mouse at 5 mg/kg, iv measured upto 24 hrs by LC/MS/MS analysis; assay type: ADME, organism-based; set-up: time < 24 hrs, dose 5 mg/kg, route iv; settings: in vivo; for AUC(0-t) at 24 h: Balb/c
[12] = Oral bioavailability in Balb/c mouse at 50 mg/kg measured upto 24 hrs by LC/MS/MS analysis; assay type: ADME, organism-based; settings: in vivo; for bioavailability: Balb/c
[13] = Chemical stability of the compound under 4500 +/- 500 lx light condition by measuring compound purity incubated for 10 days by HPLC-PDA method relative to initial purity; assay type: physicochemical; settings: 240 h; time 10 day
[14] = Chemical stability of the compound under 60 degree C high temperature by measuring compound purity incubated for 10 days by HPLC-PDA method analysis relative to initial purity; assay type: physicochemical; settings: 240 h; time 10 day
[15] = Chemical stability of the compound under 92.5% humidity by measuring compound purity incubated for 10 days by HPLC-PDA method relative to initial purity; assay type: physicochemical; settings: 240 h; time 10 day
[16] = Elimination half life in Sprague-Dawley rat at 50 mg/kg, po measured upto 24 hrs by LC/MS/MS analysis; assay type: ADME, organism-based; settings: in vivo, read-out: beta t1/2 (converted)
[17] = Elimination half life in Sprague-Dawley rat at 5 mg/kg, iv measured upto 24 hrs by LC/MS/MS analysis; assay type: ADME, organism-based; settings: in vivo, read-out: beta t1/2 (converted)
[18] = Tmax in Sprague-Dawley rat at 50 mg/kg, po measured upto 24 hrs by LC/MS/MS analysis; assay type: ADME, organism-based; settings: in vivo
[19] = Cmax in Sprague-Dawley rat at 50 mg/kg, po measured upto 24 hrs by LC/MS/MS analysis; assay type: ADME, organism-based; set-up: time < 24 hrs, dose 50 mg/kg, route po; settings: in vivo
[20] = Cmax in Sprague-Dawley rat at 5 mg/kg, iv measured upto 24 hrs by LC/MS/MS analysis; assay type: ADME, organism-based; set-up: time < 24 hrs, dose 5 mg/kg, route iv; settings: in vivo
[21] = AUC (0 to t) in Sprague-Dawley rat at 50 mg/kg, po measured upto 24 hrs by LC/MS/MS analysis; assay type: ADME, organism-based; set-up: dose 50 mg/kg, time < 24 hrs, route po; settings: in vivo
[22] = AUC (0 to t) in Sprague-Dawley rat at 5 mg/kg, iv measured upto 24 hrs by LC/MS/MS analysis; assay type: ADME, organism-based; set-up: time < 24 hrs, dose 5 mg/kg, route iv; settings: in vivo
[23] = AUC (0 to infinity) in Sprague-Dawley rat at 50 mg/kg, po measured upto 24 hrs by LC/MS/MS analysis; assay type: ADME, organism-based; set-up: time < 24 hrs, dose 50 mg/kg, route po; settings: in vivo
[24] = AUC (0 to infinity) in Sprague-Dawley rat at 5 mg/kg, iv measured upto 24 hrs by LC/MS/MS analysis; assay type: ADME, organism-based; set-up: time < 24 hrs, dose 5 mg/kg, route iv; settings: in vivo
[25] = MRT (0 to infinity) in Sprague-Dawley rat at 50 mg/kg, po measured upto 24 hrs by LC/MS/MS analysis; assay type: ADME, organism-based; settings: in vivo
[26] = MRT (0 to infinity) in Sprague-Dawley rat at 5 mg/kg, iv measured upto 24 hrs by LC/MS/MS analysis; assay type: ADME, organism-based; settings: in vivo
[27] = Clearance in Sprague-Dawley rat at 5 mg/kg, iv measured upto 24 hrs by LC/MS/MS analysis; assay type: ADME, organism-based; settings: in vivo
[28] = Oral bioavailability in Sprague-Dawley rat at 50 mg/kg measured upto 24 hrs by LC/MS/MS analysis; assay type: ADME, organism-based; settings: in vivo
[29] = Lipophilicity, log P of the compound in octanol/water incubated for 72 hrs under shaking condition by shake flask based HPLC-PDA method; assay type: physicochemical; settings: 72 h
[30] = Lipophilicity, log D of the compound in octanol/water at pH 2.0 incubated for 72 hrs under shaking condition by shake flask based HPLC-PDA method; assay type: physicochemical; settings: pH 2, 72 h
[31] = Lipophilicity, log D of the compound in octanol/water at pH 4.0 incubated for 72 hrs under shaking condition by shake flask based HPLC-PDA method; assay type: physicochemical; settings: pH 4, 72 h
[32] = Lipophilicity, log D of the compound in octanol/water at pH 6.8 incubated for 72 hrs under shaking condition by shake flask based HPLC-PDA method; assay type: physicochemical; settings: pH 6.8, 72 h
[33] = Lipophilicity, log D of the compound in octanol/water at pH 7.6 incubated for 72 hrs under shaking condition by shake flask based HPLC-PDA method; assay type: physicochemical; settings: pH 7.6, 72 h
[34] = system: Mycobacterium tuberculosis; experiment: Antibacterial activity against Mycobacterium tuberculosis H37Rv BALB/c mouse model assessed as reduction in CFU in lungs at 25 mg/kg via oral gavage for 30 days (reference value: 5.92 +/-0.29); assay type: functional; settings: time 30 day
[35] = system: Mycobacterium tuberculosis; experiment: Antibacterial activity against Mycobacterium tuberculosis H37Rv BALB/c mouse model assessed as reduction in CFU in lungs at 50 mg/kg via oral gavage for 30 days (reference value: 5.92 +/-0.29); assay type: functional; settings: time 30 day
[36] = system: Mycobacterium tuberculosis; experiment: Antibacterial activity against Mycobacterium tuberculosis H37Rv BALB/c mouse model assessed as reduction in CFU in lungs at 100 mg/kg via oral gavage for 30 days (reference value: 5.92 +/-0.29); assay type: functional; settings: time 30 day
[37] = system: Mycobacterium tuberculosis; experiment: Antibacterial activity against Mycobacterium tuberculosis H37Rv BALB/c mouse model assessed as reduction in delta CFU in lungs at 25 mg/kg via oral gavage for 30 days; assay type: functional; settings: time 30 day
[38] = system: Mycobacterium tuberculosis; experiment: Antibacterial activity against Mycobacterium tuberculosis H37Rv BALB/c mouse model assessed as reduction in delta CFU in lungs at 50 mg/kg via oral gavage for 30 days; assay type: functional; settings: time 30 day
[39] = system: Mycobacterium tuberculosis; experiment: Antibacterial activity against Mycobacterium tuberculosis H37Rv BALB/c mouse model assessed as reduction in delta CFU in lungs at 100 mg/kg via oral gavage for 30 days; assay type: functional; settings: time 30 day

O=C(O)CC(O)(CC(=O)O)C(=O)O.O=c1cc(N2CCN(CC3CCCCC3)CC2)sc2c([N+](=O)[O-])cc(C(F)(F)F)cc12
solubility ([1]; read-out: solubility): 143 µg/mL | Papp A→B [2]: 2.52 ×10⁻⁶ cm/s | Papp B→A [3]: 0.33 ×10⁻⁶ cm/s | efflux ratio [4]: 0.13 | half-life [5]: 6.19 h | half-life [6]: 6.67 h | Tmax [7]: 0.5 h | Cmax [8]: 536 ng/mL | Cmax [9]: 3780 ng/mL | AUC(0-t) at 24 h [10]: 4440 ng·h/mL | AUC(0-t) at 24 h [11]: 2360 ng·h/mL | bioavailability [12]: 19.4% | Stability [13]: 91.3% | Stability [14]: 99.6% | Stability [15]: 99.4%

O=C(O)CC(O)(CC(=O)O)C(=O)O.O=C(O)CC(O)(CC(=O)O)C(=O)O.O=C(O)CC(O)(CC(=O)O)C(=O)O.O=c1cc(N2CCN(CC3CCCCC3)CC2)sc2c([N+](=O)[O-])cc(C(F)(F)F)cc12.O=c1cc(N2CCN(CC3CCCCC3)CC2)sc2c([N+](=O)[O-])cc(C(F)(F)F)cc12
solubility ([1]; read-out: solubility): 128 µg/mL | Papp A→B [2]: 4.08 ×10⁻⁶ cm/s | Papp B→A [3]: 0.26 ×10⁻⁶ cm/s | efflux ratio [4]: 0.1

O=c1cc(N2CCN(CC3CCCCC3)CC2)sc2c([N+](=O)[O-])cc(C(F)(F)F)cc12
solubility ([1]; read-out: solubility): 0.15 µg/mL (≈ 0.329 µM) | Papp A→B [2]: 11.8 ×10⁻⁶ cm/s | Papp B→A [3]: 0.69 ×10⁻⁶ cm/s | efflux ratio [4]: 0.1 | half-life [5]: 7.25 h | half-life [6]: 6.54 h | Tmax [7]: 0.5 h | Cmax [8]: 588 ng/mL | Cmax [9]: 8240 ng/mL | AUCt ([10]; 24 h): 1581 ng·h/mL | AUCt ([11]; 24 h): 4954 ng·h/mL | F ([12]; po, 50 mg/kg, 24 h): 13.1% | half-life [16]: 3.83 h | half-life [17]: 8.27 h | Tmax [18]: 3.67 h | Cmax [19]: 109 ng/mL | Cmax [20]: 3560 ng/mL | AUC(0-t) at 24 h [21]: 741 ng·h/mL | AUC(0-t) at 24 h [22]: 1540 ng·h/mL | AUC(0-inf) [23]: 769 ng·h/mL | AUC(0-inf) [24]: 1580 ng·h/mL | MRT inf [25]: 5.94 h | MRT inf [26]: 2.99 h | clearance [27]: 53.8 mL/min/kg | bioavailability [28]: 4.87% | Stability [13]: 98.2% | Stability [14]: 100% | Stability [15]: 100% | logP [29]: 3.71 | logD [30]: 1.29 | logD [31]: 3.72 | logD [32]: > 4.3 | logD [33]: > 4.32 | Activity [34]: 3.64 log10CFU | Activity [35]: 2.34 log10CFU | Activity [36]: 2.19 log10CFU | Activity [37]: 2.28 log10CFU | Activity [38]: 3.58 log10CFU | Activity [39]: 3.73 log10CFU

O=c1nc(N2CCN(CC3CCCCC3)CC2)sc2c([N+](=O)[O-])cc(C(F)(F)F)cc12 [MACOZINONE]
solubility [1]: 0.11 µg/mL (≈ 0.241 µM)

O=C(O)/C=C/C(=O)O.O=C(O)/C=C/C(=O)O.O=C(O)/C=C/C(=O)O.O=c1cc(N2CCN(CC3CCCCC3)CC2)sc2c([N+](=O)[O-])cc(C(F)(F)F)cc12.O=c1cc(N2CCN(CC3CCCCC3)CC2)sc2c([N+](=O)[O-])cc(C(F)(F)F)cc12
solubility ([1]; read-out: solubility): 132 µg/mL | Papp A→B [2]: 7.79 ×10⁻⁶ cm/s | Papp B→A [3]: 0.11 ×10⁻⁶ cm/s | half-life [5]: 8.03 h | half-life [6]: 6.98 h | Tmax [7]: 0.67 h | Cmax [8]: 542 ng/mL | Cmax [9]: 2760 ng/mL | AUC(0-t) at 24 h [10]: 3440 ng·h/mL | AUC(0-t) at 24 h [11]: 1990 ng·h/mL | bioavailability [12]: 18.9%
